Test system: 967376-340-R-J2-PDC multicell spheroid viability
Assay: Anticancer human tumor 967376-340-R-J2-PDC patient-derived colon adenocarcinoma cell line growth inhibition [PI3K]
Conditions: for IC50: curve of first compound; for viability, T/C: stronger effect = lower value
In short: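 Combination activity was assessed by viability in multicellular tumor spheroids carrying HUVEC and MSC components. Agents were tested with PI3K inhibitors from a Cmax-based top dose (or 10 microM) downward in half-log increments.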

[1] = second compound 0.00316 µM, first compound 0.0316 µM
[2] = second compound 0.00316 µM, first compound 0.1 µM
[3] = second compound 0.01 µM, first compound 0.0316 µM
[4] = second compound 0.01 µM, first compound 0.1 µM
[5] = second compound 0.0316 µM, first compound 0.0316 µM
[6] = second compound 0.0316 µM, first compound 0.1 µM
[7] = second compound 0.0316 µM, first compound 0.316 µM
[8] = second compound 0.0316 µM, first compound 1 µM
[9] = second compound 0.1 µM, first compound 0.0316 µM
[10] = second compound 0.1 µM, first compound 0.1 µM
[11] = second compound 0.1 µM, first compound 0.316 µM
[12] = second compound 0.1 µM, first compound 1 µM
[13] = second compound 0.316 µM, first compound 0.0316 µM
[14] = second compound 0.316 µM, first compound 0.1 µM
[15] = second compound 0.316 µM, first compound 0.316 µM
[16] = second compound 0.316 µM, first compound 1 µM
[17] = second compound 1 µM, first compound 0.0316 µM
[18] = second compound 1 µM, first compound 0.1 µM
[19] = second compound 1 µM, first compound 0.316 µM
[20] = second compound 1 µM, first compound 1 µM
[21] = second compound 0.00316 µM, first compound 0.000316 µM
[22] = second compound 0.00316 µM, first compound 0.001 µM
[23] = second compound 0.00316 µM, first compound 0.00316 µM
[24] = second compound 0.00316 µM, first compound 0.01 µM
[25] = second compound 0.01 µM, first compound 0.000316 µM
[26] = second compound 0.01 µM, first compound 0.001 µM
[27] = second compound 0.01 µM, first compound 0.00316 µM
[28] = second compound 0.01 µM, first compound 0.01 µM
[29] = second compound 0.0316 µM, first compound 0.000316 µM
[30] = second compound 0.0316 µM, first compound 0.001 µM
[31] = second compound 0.0316 µM, first compound 0.00316 µM
[32] = second compound 0.0316 µM, first compound 0.01 µM
[33] = second compound 0.1 µM, first compound 0.000316 µM
[34] = second compound 0.1 µM, first compound 0.001 µM
[35] = second compound 0.1 µM, first compound 0.00316 µM
[36] = second compound 0.1 µM, first compound 0.01 µM
[37] = second compound 0.316 µM, first compound 0.000316 µM
[38] = second compound 0.316 µM, first compound 0.001 µM
[39] = second compound 0.316 µM, first compound 0.00316 µM
[40] = second compound 0.316 µM, first compound 0.01 µM
[41] = second compound 1 µM, first compound 0.000316 µM
[42] = second compound 1 µM, first compound 0.001 µM
[43] = second compound 1 µM, first compound 0.00316 µM
[44] = second compound 1 µM, first compound 0.01 µM
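Note: spheroids exposed to agents for 7 days before read-out.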
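Throughout, for viability, T/C: luminescence used as surrogate of cell viability.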

`Cn1ncc(Cl)c1-c1cc(C(=O)NC(CN)Cc2cccc(F)c2)sc1Cl` (stereo not drawn) + COc1c(OCCCN2CCOCC2)ccc2c3n(c(=NC(=O)c4cnc(N)nc4)nc12)CCN3 was tested, and the IC50 (second compound 0.00316 µM) was greater than 10000 nM, the IC50 (second compound 0.01 µM) was greater than 10000 nM and the IC50 (second compound 0.0316 µM) was 4960 nM. It also gave an IC50 (second compound 0.1 µM) greater than 10000 nM, an IC50 (second compound 0.316 µM) of 149 nM and an IC50 (second compound 1 µM) of less than 31.6 nM. The viability, T/C [1] was 93.7%, the viability, T/C [2] was 107% and the viability, T/C (second compound 0.00316 µM, first compound 0.316 µM) was 73.8%. For the same compound, the viability, T/C (second compound 0.00316 µM, first compound 1 µM) was 94.8%, the viability, T/C (second compound 0.00316 µM, first compound 3.16 µM) was 84.8% and the viability, T/C (second compound 0.00316 µM, first compound 10 µM) was 60.2%. It also gave a viability, T/C [3] of 88.5%, a viability, T/C [4] of 106% and a viability, T/C (second compound 0.01 µM, first compound 0.316 µM) of 76.2%. It also gave a viability, T/C (second compound 0.01 µM, first compound 1 µM) of 84.2%, a viability, T/C (second compound 0.01 µM, first compound 3.16 µM) of 67.3% and a viability, T/C (second compound 0.01 µM, first compound 10 µM) of 64.7%. The viability, T/C [5] was 84.1%, the viability, T/C [6] was 80.7% and the viability, T/C [7] was 70.5%. The viability, T/C [8] was 80.5%, the viability, T/C (second compound 0.0316 µM, first compound 3.16 µM) was 57.8% and the viability, T/C (second compound 0.0316 µM, first compound 10 µM) was 37.8%. The viability, T/C [9] was 76.4%, the viability, T/C [10] was 59.3% and the viability, T/C [11] was 77.9%. The viability, T/C [12] was 67.8%, the viability, T/C (second compound 0.1 µM, first compound 3.16 µM) was 52.8% and the viability, T/C (second compound 0.1 µM, first compound 10 µM) was 56.5%. It also gave a viability, T/C [13] of 59.1%, a viability, T/C [14] of 55.3% and a viability, T/C [15] of 45.1%. It also gave a viability, T/C [16] of 36%, a viability, T/C (second compound 0.316 µM, first compound 3.16 µM) of 52.5% and a viability, T/C (second compound 0.316 µM, first compound 10 µM) of 36.6%. For the same compound, the viability, T/C [17] was 40.4%, the viability, T/C [18] was 46.5% and the viability, T/C [19] was 30.9%. For the same compound, the viability, T/C [20] was 39.7%, the viability, T/C (second compound 1 µM, first compound 3.16 µM) was 31.4% and the viability, T/C (second compound 1 µM, first compound 10 µM) was 24.4%.
`Cn1ncnc1[C@H]1c2n[nH]c(=O)c3cc(F)cc(c23)N[C@@H]1c1ccc(F)cc1` + COc1c(OCCCN2CCOCC2)ccc2c3n(c(=NC(=O)c4cnc(N)nc4)nc12)CCN3 gave an IC50 (second compound 0.00316 µM) greater than 100 nM, an IC50 (second compound 0.01 µM) greater than 100 nM and an IC50 (second compound 0.0316 µM) greater than 100 nM. It also gave an IC50 (second compound 0.1 µM) greater than 100 nM, an IC50 (second compound 0.316 µM) of less than 0.316 nM and an IC50 (second compound 1 µM) of less than 0.316 nM. The viability, T/C [21] was 102%, the viability, T/C [22] was 95% and the viability, T/C [23] was 76.1%. It also gave a viability, T/C [24] of 97%, a viability, T/C [1] of 88.7% and a viability, T/C [2] of 105%. For the same compound, the viability, T/C [25] was 76.6%, the viability, T/C [26] was 94.9% and the viability, T/C [27] was 81.1%. The viability, T/C [28] was 73.9%, the viability, T/C [3] was 80.5% and the viability, T/C [4] was 87.9%. For the same compound, the viability, T/C [29] was 85.2%, the viability, T/C [30] was 90.4% and the viability, T/C [31] was 74.5%. For the same compound, the viability, T/C [32] was 70.9%, the viability, T/C [5] was 66.8% and the viability, T/C [6] was 73.4%. The viability, T/C [33] was 53.3%, the viability, T/C [34] was 70.4% and the viability, T/C [35] was 56.5%. For the same compound, the viability, T/C [36] was 53.5%, the viability, T/C [9] was 62.5% and the viability, T/C [10] was 56.4%. The viability, T/C [37] was 42.1%, the viability, T/C [38] was 40.9% and the viability, T/C [39] was 44.6%. The viability, T/C [40] was 36.2%, the viability, T/C [13] was 52.7% and the viability, T/C [14] was 43.2%. For the same compound, the viability, T/C [41] was 27.8%, the viability, T/C [42] was 26.8% and the viability, T/C [43] was 39.8%. It also gave a viability, T/C [44] of 55.2%, a viability, T/C [17] of 32.9% and a viability, T/C [18] of 26.9%.
Work on `CC(C)n1nc(-c2ccc3oc(N)nc3c2)c2c(N)ncnc21` + CC(Nc1ccc2c(c1)OCCn1cc(N3C(=O)OCC3C(F)F)nc1-2)C(N)=O yielded an IC50 (second compound 0.00316 µM) greater than 100 nM, an IC50 (second compound 0.01 µM) greater than 100 nM and an IC50 (second compound 0.0316 µM) of 71.9 nM. For the same compound, the IC50 (second compound 0.1 µM) was 66.5 nM, the IC50 (second compound 0.316 µM) was 20.7 nM and the IC50 (second compound 1 µM) was 36.9 nM. The viability, T/C [21] was 82.3%, the viability, T/C [22] was 69.7% and the viability, T/C [23] was 69.4%. It also gave a viability, T/C [24] of 76.4%, a viability, T/C [1] of 73.1% and a viability, T/C [2] of 51.9%. The viability, T/C [25] was 106%, the viability, T/C [26] was 90.1% and the viability, T/C [27] was 67.3%. The viability, T/C [28] was 68.7%, the viability, T/C [3] was 68.1% and the viability, T/C [4] was 43.3%. It also gave a viability, T/C [29] of 81.1%, a viability, T/C [30] of 87% and a viability, T/C [31] of 65.4%. The viability, T/C [32] was 74.4%, the viability, T/C [5] was 60.5% and the viability, T/C [6] was 45.2%. It also gave a viability, T/C [33] of 67.3%, a viability, T/C [34] of 79.8% and a viability, T/C [35] of 91.5%. The viability, T/C [36] was 69.5%, the viability, T/C [9] was 56.9% and the viability, T/C [10] was 46.3%. It also gave a viability, T/C [37] of 57.7%, a viability, T/C [38] of 61.9% and a viability, T/C [39] of 54.6%. For the same compound, the viability, T/C [40] was 64.7%, the viability, T/C [13] was 44.3% and the viability, T/C [14] was 33.1%. The viability, T/C [41] was 53.9%, the viability, T/C [42] was 54.8% and the viability, T/C [43] was 63.8%. The viability, T/C [44] was 47.5%, the viability, T/C [17] was 54% and the viability, T/C [18] was 38.4%.
`CCN1CCN(Cc2ccc(Nc3ncc(F)c(-c4cc(F)c5nc(C)n(C(C)C)c5c4)n3)nc2)CC1` + CC(Nc1ncnc2nc[nH]c12)c1cc2cccc(Cl)c2c(=O)n1-c1ccccc1 was tested, and the IC50 (second compound 0.0316 µM) was greater than 1000 nM, the IC50 (second compound 0.1 µM) was greater than 1000 nM and the IC50 (second compound 0.316 µM) was greater than 1000 nM. For the same compound, the IC50 (second compound 1 µM) was greater than 1000 nM, the IC50 (second compound 3.16 µM) was greater than 1000 nM and the IC50 (second compound 10 µM) was greater than 1000 nM. It also gave a viability, T/C [31] of 93.1%, a viability, T/C [32] of 95.1% and a viability, T/C [5] of 91.3%. It also gave a viability, T/C [6] of 73.8%, a viability, T/C [7] of 88.5% and a viability, T/C [8] of 70.1%. It also gave a viability, T/C [35] of 103%, a viability, T/C [36] of 106% and a viability, T/C [9] of 74.9%. It also gave a viability, T/C [10] of 87.9%, a viability, T/C [11] of 74.4% and a viability, T/C [12] of 86.8%. It also gave a viability, T/C [39] of 113%, a viability, T/C [40] of 95.7% and a viability, T/C [13] of 100%. For the same compound, the viability, T/C [14] was 83.9%, the viability, T/C [15] was 79.5% and the viability, T/C [16] was 65.1%. The viability, T/C [43] was 111%, the viability, T/C [44] was 87% and the viability, T/C [17] was 86.8%. For the same compound, the viability, T/C [18] was 80%, the viability, T/C [19] was 78.6% and the viability, T/C [20] was 58.6%. The viability, T/C (second compound 3.16 µM, first compound 0.00316 µM) was 95.7%, the viability, T/C (second compound 3.16 µM, first compound 0.01 µM) was 77.7% and the viability, T/C (second compound 3.16 µM, first compound 0.0316 µM) was 94.5%. The viability, T/C (second compound 3.16 µM, first compound 0.1 µM) was 72.6%, the viability, T/C (second compound 3.16 µM, first compound 0.316 µM) was 75.9% and the viability, T/C (second compound 3.16 µM, first compound 1 µM) was 60%. For the same compound, the viability, T/C (second compound 10 µM, first compound 0.00316 µM) was 92%, the viability, T/C (second compound 10 µM, first compound 0.01 µM) was 85.9% and the viability, T/C (second compound 10 µM, first compound 0.0316 µM) was 72%. For the same compound, the viability, T/C (second compound 10 µM, first compound 0.1 µM) was 62%, the viability, T/C (second compound 10 µM, first compound 0.316 µM) was 67.3% and the viability, T/C (second compound 10 µM, first compound 1 µM) was 48.6%.

Reference: PubChem BioAssay AID1963962 (Molecular Pharmacology Branch, DTP, NCI, 2024)
